Assay results from US8986994B2, “Substituted pyridines and pyrimidines” (Technische Universitaet Wien, priority 2009, dated 2015).
Read-outs that look alike come from different tables or passages of the source.

What was measured:
Nkx2.5 (C2C12 cells) = assay: Nkx2.5 luciferase reporter assay in C2C12 cells; assay type: cell-based; conditions: Mus musculus, read-out: Nkx2.5 activity
Nkx2.5 (P19 cells) = assay: Nkx2.5 luciferase reporter assay in P19 cells; assay type: cell-based; conditions: Mus musculus, read-out: Nkx2.5 activity
ANF (P19 cells) = assay: ANF promoter luciferase reporter assay in P19 cells; assay type: cell-based, mouse; conditions: for fold induction at 1 µM: Mus musculus, read-out: ANF activity
TOPflash (C2C12 cells) = assay: TOPflash luciferase reporter assay in C2C12 cells; assay type: cell-based; conditions: Mus musculus, read-out: TOPflash activity
[1] = test system: Ca currents in C2C12 cells; assay: Electrophysiological testing, whole cell patch clamp: Ca currents; assay type: cell-based, mouse
ANF (C2C12 cells) = assay: ANF promoter luciferase reporter assay in C2C12 cells; assay type: cell-based, mouse; conditions: for fold induction at 1 µM: Mus musculus, read-out: ANF activity; for luciferase signal in all three reporter assays: ANF, TOPflash and Nkx2.5 reporter assays together
TOPflash (P19 cells) = assay: TOPflash luciferase reporter assay in P19 cells; assay type: cell-based; conditions: Mus musculus, read-out: TOPflash activity
[2] = test system: Na currents in C2C12 cells; assay type: cell-based, mouse; conditions: 1 μM for 8 days
[3] = test system: ANF (human primary skeletal myoblasts); assay: ANF reporter assay in human primary skeletal myoblasts; assay type: cell-based; conditions: 1 μM for 6 days, two experiments
[4] = 192 h, C2C12 cells, 1 μM for 8 days, luciferase signal vs control (untreated cells)
[5] = 192 h, P19 cells, 1 μM for 8 days, luciferase signal vs control (untreated cells)

**Q.** Which fold induction at 1 µM (Nkx2.5 (C2C12 cells); [4]) does the source give for COc1ccc(Nc2cc(NCCO)ncn2)cc1 [example 1, 2-(6-(4-Methoxyphenylamino)pyrimidine-4-ylamino)ethan-1-ol] here?
**A.** Its fold induction at 1 µM is less than 1.3.

**Q.** And the fold induction at 1 µM (Nkx2.5 (P19 cells); [5])?
**A.** The fold induction at 1 µM was less than 1.3.

**Q.** What about the fold induction at 1 µM (ANF (P19 cells); [5]) of the same molecule?
**A.** Its fold induction at 1 µM is 1.3 to 2.

**Q.** And the fold induction at 1 µM (TOPflash (C2C12 cells); [4])?
**A.** Its fold induction at 1 µM is less than 1.3.

**Q.** And the “activation kinetics of Ca currents” value [1]?
**A.** Its value is “significantly speeds”.

**Q.** What about the fold induction at 1 µM (ANF (C2C12 cells); [4]) of the same molecule?
**A.** The fold induction at 1 µM was greater than 2.

**Q.** And the fold induction at 1 µM (TOPflash (P19 cells); [5])?
**A.** The fold induction at 1 µM was less than 1.3.

**Q.** What about the “tetrodotoxin (TTX)-resistance of the Na currents” value [2] of the same molecule?
**A.** Its value is “moderately increase”.

**Q.** Which fold induction at 1 µM (Nkx2.5 (C2C12 cells); [4]) does the source give for COc1ccc(Nc2cc(NCCCO)ncn2)cc1 [example 2, 3-(6-(4-Methoxyphenylamino)pyrimidine-4-ylamino)propan-1-ol] here?
**A.** Its fold induction at 1 µM is 1.3 to 2.

**Q.** What about the fold induction at 1 µM (Nkx2.5 (P19 cells); [5]) of the same molecule?
**A.** The fold induction at 1 µM was less than 1.3.

**Q.** What about the melting point of the same molecule?
**A.** Its melting point is 151 to 152 °C.

**Q.** What about the fold induction at 1 µM (ANF (P19 cells); [5]) of the same molecule?
**A.** Its fold induction at 1 µM is 1.3 to 2.

**Q.** And the fold induction at 1 µM (TOPflash (C2C12 cells); [4])?
**A.** The fold induction at 1 µM was less than 1.3.

**Q.** And the fold induction at 1 µM (ANF (C2C12 cells); [4])?
**A.** Its fold induction at 1 µM is less than 1.3.

**Q.** What about the fold induction at 1 µM (TOPflash (P19 cells); [5]) of the same molecule?
**A.** The fold induction at 1 µM was greater than 2.

**Q.** And the “tetrodotoxin (TTX)-resistance of the Na currents” value [2]?
**A.** The value was “moderately increase”.

**Q.** What does the source list for c1nc(Nc2ccc(N3CCOCC3)cc2)cc(NC2CCCCC2)n1 [example 5, N^4-Cyclohexyl-N^6-(4-morpholinophenyl)pyrimidine-4,6-diamine]?
**A.** fold induction at 1 µM (Nkx2.5 (C2C12 cells); C2C12, 192 h): < 1.3; fold induction at 1 µM (Nkx2.5 (P19 cells); P19, 192 h): < 1.3; melting point: 239 to 240 °C; fold induction at 1 µM (ANF (P19 cells); P19, 192 h): 1.3 to 2; fold induction at 1 µM (TOPflash (C2C12 cells); C2C12, 192 h): < 1.3; fold induction at 1 µM (ANF (C2C12 cells); C2C12, 192 h): < 1.3; fold induction at 1 µM (TOPflash (P19 cells); P19, 192 h): < 1.3

**Q.** For OCCCNc1cc(Nc2ccc(N3CCOCC3)cc2)ncn1 [example 6, 3-(6-(4-Morpholinophenylamino)pyrimidin-4-ylamino)propan-1-ol], which fold induction at 1 µM (Nkx2.5 (C2C12 cells); [4]) is on record?
**A.** Its fold induction at 1 µM is 1.3 to 2.

**Q.** And the fold induction at 1 µM (Nkx2.5 (P19 cells); [5])?
**A.** The fold induction at 1 µM was less than 1.3.

**Q.** What about the melting point of the same molecule?
**A.** Its melting point is 198 to 199 °C.

**Q.** What about the fold induction at 1 µM (ANF (P19 cells); [5]) of the same molecule?
**A.** The fold induction at 1 µM was 1.3 to 2.

**Q.** And the fold induction at 1 µM (TOPflash (C2C12 cells); [4])?
**A.** Its fold induction at 1 µM is less than 1.3.

**Q.** What about the fold induction at 1 µM (ANF (C2C12 cells); [4]) of the same molecule?
**A.** The fold induction at 1 µM was 1.3 to 2.

**Q.** What about the fold induction at 1 µM (TOPflash (P19 cells); [5]) of the same molecule?
**A.** The fold induction at 1 µM was less than 1.3.

**Q.** For OCCNc1cc(Nc2ccc(Nc3ccccc3)cc2)ncn1 [example 7, 2-(6-(4-(Phenylamino)phenylamino)pyrimidin-4-ylamino)ethan-1-ol], which fold induction at 1 µM (Nkx2.5 (C2C12 cells); [4]) is on record?
**A.** Its fold induction at 1 µM is less than 1.3.

**Q.** And the fold induction at 1 µM (Nkx2.5 (P19 cells); [5])?
**A.** Its fold induction at 1 µM is less than 1.3.

**Q.** What about the melting point of the same molecule?
**A.** The melting point was 154 to 155 °C.

**Q.** What about the fold induction at 1 µM (ANF (P19 cells); [5]) of the same molecule?
**A.** Its fold induction at 1 µM is less than 1.3.

**Q.** And the fold induction at 1 µM (TOPflash (C2C12 cells); [4])?
**A.** Its fold induction at 1 µM is less than 1.3.

**Q.** And the fold induction at 1 µM (ANF (C2C12 cells); [4])?
**A.** The fold induction at 1 µM was less than 1.3.

**Q.** What about the fold induction at 1 µM (TOPflash (P19 cells); [5]) of the same molecule?
**A.** Its fold induction at 1 µM is less than 1.3.

**Q.** Which results are given for OCCNc1cc(Nc2ccc(Oc3ccccc3)cc2)ncn1 [example 8, 2-(6-(4-Phenoxyphenylamino)pyrimidin-4-ylamino)ethan-1-ol]?
**A.** fold induction at 1 µM (Nkx2.5 (C2C12 cells); [4]): 1.3 to 2; fold induction at 1 µM (Nkx2.5 (P19 cells); [5]): < 1.3; melting point: 154 to 156 °C; fold induction at 1 µM (ANF (P19 cells); [5]): < 1.3; fold induction at 1 µM (TOPflash (C2C12 cells); [4]): < 1.3; fold induction at 1 µM (ANF (C2C12 cells); [4]): < 1.3; fold induction at 1 µM (TOPflash (P19 cells); [5]): 1.3 to 2

**Q.** For CCCNc1cc(Nc2ccc(OC)cc2)ncn1 [example 9, N^4-(4-Methoxyphenyl)-N^6-propylpyrimidine-4,6-diamine], which fold induction at 1 µM (Nkx2.5 (C2C12 cells); [4]) is on record?
**A.** Its fold induction at 1 µM is 1.3 to 2.

**Q.** And the fold induction at 1 µM (Nkx2.5 (P19 cells); [5])?
**A.** Its fold induction at 1 µM is greater than 2.

**Q.** And the melting point?
**A.** The melting point was 194 to 196 °C.

**Q.** What about the fold induction at 1 µM (ANF (P19 cells); [5]) of the same molecule?
**A.** The fold induction at 1 µM was less than 1.3.

**Q.** What about the fold induction at 1 µM (TOPflash (C2C12 cells); [4]) of the same molecule?
**A.** The fold induction at 1 µM was 1.3 to 2.

**Q.** What about the fold induction at 1 µM (ANF (C2C12 cells); [4]) of the same molecule?
**A.** Its fold induction at 1 µM is less than 1.3.

**Q.** What about the fold induction at 1 µM (TOPflash (P19 cells); [5]) of the same molecule?
**A.** The fold induction at 1 µM was less than 1.3.

**Q.** Which fold induction at 1 µM (Nkx2.5 (C2C12 cells); C2C12, 192 h) does the source give for CCNc1cc(Nc2ccc(OC)cc2)ncn1 [example 10, N^4-Ethyl-N^6-(4-methoxyphenyl)pyrimidine-4,6-diamine] here?
**A.** The fold induction at 1 µM was 1.3 to 2.

**Q.** What about the fold induction at 1 µM (Nkx2.5 (P19 cells); P19, 192 h) of the same molecule?
**A.** Its fold induction at 1 µM is less than 1.3.

**Q.** And the melting point?
**A.** Its melting point is 190 to 193 °C.

**Q.** And the fold induction at 1 µM (ANF (P19 cells); P19, 192 h)?
**A.** Its fold induction at 1 µM is 1.3 to 2.

**Q.** And the fold induction at 1 µM (TOPflash (C2C12 cells); C2C12, 192 h)?
**A.** The fold induction at 1 µM was 1.3 to 2.

**Q.** And the “luciferase signal in all three reporter assays” value (ANF (C2C12 cells); C2C12 cells, 1 μM for 8 days)?
**A.** The value was “increase in the luciferase signal in all three reporter assays”.

**Q.** What about the fold induction at 1 µM (ANF (C2C12 cells); C2C12, 192 h) of the same molecule?
**A.** The fold induction at 1 µM was 1.3 to 2.

**Q.** What about the fold induction at 1 µM (TOPflash (P19 cells); P19, 192 h) of the same molecule?
**A.** Its fold induction at 1 µM is less than 1.3.

**Q.** Which fold induction at 1 µM (Nkx2.5 (C2C12 cells); [4]) does the source give for CNc1cc(Nc2ccc(OC)cc2)ncn1 [example 11, N^4-(4-Methoxyphenyl)-N^6-methylpyrimidine-4,6-diamine] here?
**A.** Its fold induction at 1 µM is 1.3 to 2.

**Q.** And the fold induction at 1 µM (Nkx2.5 (P19 cells); [5])?
**A.** Its fold induction at 1 µM is less than 1.3.

**Q.** What about the melting point of the same molecule?
**A.** The melting point was 174 to 182 °C.

**Q.** What about the fold induction at 1 µM (ANF (P19 cells); [5]) of the same molecule?
**A.** The fold induction at 1 µM was less than 1.3.

**Q.** And the fold induction at 1 µM (TOPflash (C2C12 cells); [4])?
**A.** Its fold induction at 1 µM is 1.3 to 2.

**Q.** And the fold induction at 1 µM (ANF (C2C12 cells); [4])?
**A.** Its fold induction at 1 µM is less than 1.3.

**Q.** What about the fold induction at 1 µM (TOPflash (P19 cells); [5]) of the same molecule?
**A.** Its fold induction at 1 µM is greater than 2.

**Q.** With COc1ccc(Nc2ccnc(NCCO)c2)cc1 [example 40, 2-(4-(4-Methoxyphenylamino)pyridin-2-ylamino)ethan-1-ol] as the molecule, how does the fold induction at 1 µM (Nkx2.5 (C2C12 cells); [4]) read?
**A.** Its fold induction at 1 µM is less than 1.3.

**Q.** And the fold induction at 1 µM (Nkx2.5 (P19 cells); [5])?
**A.** The fold induction at 1 µM was less than 1.3.

**Q.** And the melting point?
**A.** Its melting point is 164 to 165 °C.

**Q.** What about the fold induction at 1 µM (ANF (P19 cells); [5]) of the same molecule?
**A.** Its fold induction at 1 µM is less than 1.3.

**Q.** And the fold induction at 1 µM (TOPflash (C2C12 cells); [4])?
**A.** Its fold induction at 1 µM is less than 1.3.

**Q.** And the fold induction at 1 µM (ANF (C2C12 cells); [4])?
**A.** The fold induction at 1 µM was less than 1.3.

**Q.** What about the fold induction at 1 µM (TOPflash (P19 cells); [5]) of the same molecule?
**A.** The fold induction at 1 µM was less than 1.3.

**Q.** What does the source list for COc1ccc(Nc2cccc(NCCO)n2)cc1 [example 42, 2-(6-(4-Methoxyphenylamino)pyridin-2-ylamino)ethan-1-ol]?
**A.** fold induction at 1 µM (Nkx2.5 (C2C12 cells); [4]): 1.3 to 2; fold induction at 1 µM (Nkx2.5 (P19 cells); [5]): 1.3 to 2; fold induction at 1 µM (ANF (P19 cells); [5]): 1.3 to 2; luciferase signal in all three reporter assays (ANF (P19 cells); P19 cells, 1 μM for 8 days, ANF, TOPflash and Nkx2.5 reporter assays together): increase in the luciferase signal in all three reporter assays; fold induction at 1 µM (TOPflash (C2C12 cells); [4]): 1.3 to 2; luciferase signal in all three reporter assays (ANF (C2C12 cells); C2C12 cells, 1 μM for 8 days): increase in the luciferase signal in all three reporter assays; fold induction at 1 µM (ANF (C2C12 cells); [4]): 1.3 to 2; fold induction at 1 µM (TOPflash (P19 cells); [5]): > 2; luciferase signal in the ANF reporter assay [3]: generated an increase in the luciferase signal
